Laboratory results from article PMC9975495, “Unveiling the therapeutic potential of cabozantinib-loaded poly D,L-lactic-co-glycolic acid and polysarcosine nanoparticles in inducing apoptosis and cytotoxicity in human HepG2 hepatocellular carcinoma cell lines and in vivo anti-tumor activity in SCID female mice” (Frontiers in Oncology, 2023).

How the values were obtained:
erythrocytes = assay: Erythrocyte membrane integrity by lactate dehydrogenase release; type: cell-based, human; details: erythrocyte suspension, 10, 50 and 100 µg/mL, 8 hours
Protocol: Erythrocytes produce lactate dehydrogenase (LDH), which may be measured photometrically using the LDH test kit/Lactate Dehydrogenase Assay Kit (Colorimetric) (ab102526) ([50]). For the LDH investigation, blood was obtained from the neighbouring blood bank. The erythrocyte suspension was made according to the methodology described in our earlier research. In 1mL of erythrocyte solution was treated with specific amount of Cabozantinib (CNB), PLGA-PSar-encapsulated Cabozantinib nanoparticles (CNB-PLGA-PSar-NPs), and placebo (PLGA-PSar-NPs) ([51]). Positive control sample was created by diluting erythrocyte suspension with 1% Triton-X-100, whereas negative control sample was created by diluting erythrocyte suspension with normal saline solution. […] LDH was detected at 500nm after a ready-to-use LDH solution was added to the supernatant. The total of LDH was calculated using the following formula. […]
Where, A sample stands for Cabozantinib, PLGA-PSar-encapsulated Cabozantinib nanoparticles (CNB-PLGA-PSar-NPs) incubated erythrocytes absorbance, A negative control indicates, erythrocytes absorbance of sample, which was pre-treated with normal saline solution. The A standard indicates the absorbance of erythrocytes sustention, which were pre-treated with 150/UL Lactate dehydrogenase (LDH) enzyme. […]

[1] = Tissue distribution studies; type: in vivo, SCID mice; details: 20 mg/kg i.v. bolus, killed eight hours later
Description: Tissue distribution studies in mice with SCID are required in anti-liver cancer activity to determine the distribution and concentration of a drug within the body after administration ([54]). This information is important for understanding how the drug is metabolized and cleared by the body, as well as for determining appropriate dosing regimens. Additionally, tissue distribution studies can help to identify any potential toxicities or side effects associated with the drug in specific organs or tissues. In the case of anti-liver cancer activity, knowing the distribution of the drug in the liver would be particularly important to ensure the drug is reaching its target site and effectively inhibiting the growth of cancer cells. The tissue distribution of a bolus dosage of 20 mg/kg i.v. Cabozantinib (CNB), CNB-PLGA-PSar-NPs was documented. The greatest concentration of CNB was found in liver parenchymal hepatocyte tissue. […] The increased affinity of CNB in the liver and pancreas enables the medication molecule to effectively treat liver cancer.
The tissue distribution was studied by separating 18 SCID mice into three groups (each group had six mice). The drug and its Nano formulations were administered intravenously (i.v.) at a bolus dose of 20 mg/kg. Groups of mice were given a dosage and then killed eight hours later. […] The samples were analysed using RP-UHPLC (Dionex Ultimate, 3000). […]

Hep Par 1 = assay: Immunohistochemistry of xenograft tumour sections; type: in vivo, SCID female mice; details: five 400 µm × 400 µm zones
Protocol: Paraffin 10µm thick sections of xenograft HePG2 cancer cell tissues embedded in liver parenchyma blocks. The blocks were […] in a 10 mM citrate buffer solution and autoclaved for 20 minutes to extract antigens. After heating the section slide blocks, they were allowed to cool for 1.5 hours at room temperature. The sectioned slides were then incubated overnight at 4°C with a primary antibody against Hepatocyte specific antigen (Hep Par 1) (91091816- SK-HEP-1, Sigma-Aldrich, Bengaluru, India). Further, section slides were incubated with enzyme-linked immunosorbent assay (ELISA) horseradish peroxidase (HRP) conjugated Goat anti-Rabbit IgG (H+L) secondary antibody (Thermo Fisher Scientific, Vadodara, Gujarat) for 1hr followed by treatment with 120µL […] (Dako). For analysing the results of Immunohistochemistry, five square zones […] were measured and averaged for the number of stained cells in each sectioned slide. Using GraphPad Prism 9 (San Diego, California) and student t-test statistical analyses were performed.

[2] = Pharmacokinetic study, plasma by RP-HPLC; type: in vivo, Male Albino Wister rats; details: rats, 20 mg/kg intravenous
Protocol: 06 Male Albino Wister rats (200 to 250 g) are separated into two groups (n=3) for the purpose of conducting pharmacokinetic studies ([55]). For up to 72 hours, a comparative plasma concentration-time profile of Cabozantinib (CNB), CNB-PLGA-PSar-NPs was analysed. […] Using the tail vein of rats, 500µL of blood samples were collected at 0, 0.5, 1, 2, 4, 8, 16, 24, 48, and 72 hours from three animals in each group. Blood samples were stored in a microcentrifuge tube and centrifuged at 7,500 rpm for 30 minutes at 25°C to separate supernatant plasma. The collected samples were analysed using the RP-HPLC system and stored at -80°C (1290 Infinity II LC System, Agilent, USA). Using kinetica 5.0 pharmacokinetics software, the obtained RP-HPLC variables were interpreted in terms of their pharmacokinetics (Thermo Fisher Scientific, Yokohama)

[3] = system: HePG2 cells Xenograft model; assay: In vivo anti-tumour efficacy study, HePG2 xenograft; set-up: species or system SCID female mice; details: 20 mg/kg i.v. once weekly, 21 days
Protocol: The SCID female mice of 8-10 weeks old were used in the in vivo effectiveness study ([53]). SCID stands for severe combined immunodeficiency disorder. Mice were housed in individually ventilated cages with pelleted food, a 12-hour/12-hour dark-light cycle, and unrestricted access to water (supplied ad libitum) in a climate-controlled setting with a temperature range of 25°C ± 3°C. The National Institutes of Health's guidelines for the care and use of animals were followed when conducting all animal experiments, which included those at Animal House of […], India. These facilities also complied with CPCSEA (Committee for the Purpose of Control and Supervision of Experiments on Animals) regulations. Mice were subcutaneously injected with cultured HePG2 cells (5x10^6 cells) in 200μL of RPMI 1640 with 33% Corning Matrigel Basement Membrane Matrix (Sigma-Aldrich, India). […] A digital electronic calliper was used to measure the tumor's size twice a week. To assess toxicity, body weight was monitored twice weekly. Tumour volume was calculated as […]. The SCID female mice were given thiopental anaesthesia prior to being killed by cervical dislocation. Before being implanted in paraffin wax, liver tissues and tumour bulbs from the descending liver were collected and preserved overnight in 10% formalin (CH2O) with a pH 7.4 phosphate buffer solution.

[4] = male, Albino Wister, rat, plasma

Compound | LDH release / erythrocyte membrane integrity (erythrocytes) | tissue distribution [1] | Hep Par 1 labelling index (Hep Par 1) | C0 [2, 4] [ng/mL] | Cmax [2, 4] [ng/mL] | MRT [2, 4] [h] | Vd [2, 4] [L] | clearance [2, 4] [mL/min] | t1/2 [2] [h] | reduction in the size of the tumour compared to the vehicle control [3] [%]
COc1cc2nccc(Oc3ccc(NC(=O)C4(C(=O)Nc5ccc(F)cc5)CC4)cc3)c2cc1OC [CNB, Cabozantinib] | would not alter the integrity of erythrocyte membranes | more widely distributed in the parenchymal hepatocyte tissue | 9.22 ± 1.67 | 215 ± 16.3 | 241 ± 34.2 | 7.45 ± 0.24 | 1.522 ± 0.00154 | 2.08 | 5.21 ± 0.18 | 60.3
Triton X 100 | exceptionally significant LDH release |  |  |  |  |  |  |  |  | 
